In paper PMC10507085, “Pharmacological inhibition of TBK1/IKKε blunts immunopathology in a murine model of SARS-CoV-2 infection” (Nature Communications, 2023):

Legend:
Experiment in all cases: biochemical
Design in all cases: KINOMEscan competition binding, DNA-tagged kinase against immobilised ligand, qPCR read-out
Settings in all cases: read-out: Percent Control
TNK1 = TNK1 (Homo sapiens, UniProt Q13470)
MAP4K2 = MAP4K2 (Homo sapiens, UniProt Q12851)
PIK3CA = PIK3CA (Homo sapiens, UniProt P42336)
FYN = FYN (Homo sapiens, UniProt P06241)
PRKG1 = PRKG1 (Homo sapiens, UniProt Q13976)
Sequence of PRKG1 (Q13976 whole entry): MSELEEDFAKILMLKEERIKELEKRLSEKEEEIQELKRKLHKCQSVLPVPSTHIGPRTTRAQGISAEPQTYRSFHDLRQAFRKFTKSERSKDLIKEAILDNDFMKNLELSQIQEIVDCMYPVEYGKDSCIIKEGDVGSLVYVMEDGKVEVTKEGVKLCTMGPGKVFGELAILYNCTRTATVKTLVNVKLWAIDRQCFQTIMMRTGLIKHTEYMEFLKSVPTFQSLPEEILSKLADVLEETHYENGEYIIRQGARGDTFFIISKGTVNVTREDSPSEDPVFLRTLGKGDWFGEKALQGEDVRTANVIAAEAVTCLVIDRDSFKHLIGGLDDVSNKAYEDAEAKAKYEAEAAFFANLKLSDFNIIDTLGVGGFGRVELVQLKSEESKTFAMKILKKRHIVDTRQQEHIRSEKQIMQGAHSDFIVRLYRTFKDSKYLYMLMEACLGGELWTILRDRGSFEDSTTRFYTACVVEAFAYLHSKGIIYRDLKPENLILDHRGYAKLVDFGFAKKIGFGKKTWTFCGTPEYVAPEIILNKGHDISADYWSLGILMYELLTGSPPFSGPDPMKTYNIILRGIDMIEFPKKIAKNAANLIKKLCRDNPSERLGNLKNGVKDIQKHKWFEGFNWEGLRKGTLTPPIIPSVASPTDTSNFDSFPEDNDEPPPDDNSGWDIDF

WNK4 = WNK4 (Homo sapiens, UniProt Q96J92)
STK32A = STK32A (Homo sapiens, UniProt Q8WU08)
Sequence of STK32A (Q8WU08 whole entry): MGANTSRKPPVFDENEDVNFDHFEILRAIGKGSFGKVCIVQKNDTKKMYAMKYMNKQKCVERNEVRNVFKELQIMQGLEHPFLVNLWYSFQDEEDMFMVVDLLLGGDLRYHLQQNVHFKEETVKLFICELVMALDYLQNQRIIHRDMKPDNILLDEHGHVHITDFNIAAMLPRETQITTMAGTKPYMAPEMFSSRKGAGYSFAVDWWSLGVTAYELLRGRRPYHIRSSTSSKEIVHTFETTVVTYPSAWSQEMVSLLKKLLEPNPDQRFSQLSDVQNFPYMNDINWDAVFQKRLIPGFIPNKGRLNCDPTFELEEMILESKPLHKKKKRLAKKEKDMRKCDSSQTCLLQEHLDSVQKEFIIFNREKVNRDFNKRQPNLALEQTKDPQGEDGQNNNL

IRAK3 = IRAK3 (Homo sapiens, UniProt Q9Y616)
TLK1 = TLK1 (Homo sapiens, UniProt Q9UKI8)
[1] = target: T1, RSK3(Kin.Dom.1-N-terminal) (Homo sapiens, UniProt Q15349)
T1 construct: gene RPS6KA2; Kin.Dom.1 N-terminal

ROCK1 = ROCK1 (Homo sapiens, UniProt Q13464)
MAPK3 = MAPK3 (Homo sapiens, UniProt P27361)
Sequence of MAPK3 (P27361 whole entry): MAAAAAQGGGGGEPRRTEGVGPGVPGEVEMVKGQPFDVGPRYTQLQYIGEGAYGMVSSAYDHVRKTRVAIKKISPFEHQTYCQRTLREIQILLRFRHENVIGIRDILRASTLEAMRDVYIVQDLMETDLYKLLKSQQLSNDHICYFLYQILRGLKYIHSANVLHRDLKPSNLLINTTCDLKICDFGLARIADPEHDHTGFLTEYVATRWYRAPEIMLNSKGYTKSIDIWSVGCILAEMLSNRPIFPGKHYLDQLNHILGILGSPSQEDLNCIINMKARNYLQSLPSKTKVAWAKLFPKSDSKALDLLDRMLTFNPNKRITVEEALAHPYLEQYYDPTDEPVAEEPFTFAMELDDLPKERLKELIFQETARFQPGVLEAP

[2] = target: T2, RSK2(Kin.Dom.1-N-terminal) (Homo sapiens, UniProt P51812)
T2 construct: gene RPS6KA3; Kin.Dom.1 N-terminal
T2 sequence (P51812 whole entry): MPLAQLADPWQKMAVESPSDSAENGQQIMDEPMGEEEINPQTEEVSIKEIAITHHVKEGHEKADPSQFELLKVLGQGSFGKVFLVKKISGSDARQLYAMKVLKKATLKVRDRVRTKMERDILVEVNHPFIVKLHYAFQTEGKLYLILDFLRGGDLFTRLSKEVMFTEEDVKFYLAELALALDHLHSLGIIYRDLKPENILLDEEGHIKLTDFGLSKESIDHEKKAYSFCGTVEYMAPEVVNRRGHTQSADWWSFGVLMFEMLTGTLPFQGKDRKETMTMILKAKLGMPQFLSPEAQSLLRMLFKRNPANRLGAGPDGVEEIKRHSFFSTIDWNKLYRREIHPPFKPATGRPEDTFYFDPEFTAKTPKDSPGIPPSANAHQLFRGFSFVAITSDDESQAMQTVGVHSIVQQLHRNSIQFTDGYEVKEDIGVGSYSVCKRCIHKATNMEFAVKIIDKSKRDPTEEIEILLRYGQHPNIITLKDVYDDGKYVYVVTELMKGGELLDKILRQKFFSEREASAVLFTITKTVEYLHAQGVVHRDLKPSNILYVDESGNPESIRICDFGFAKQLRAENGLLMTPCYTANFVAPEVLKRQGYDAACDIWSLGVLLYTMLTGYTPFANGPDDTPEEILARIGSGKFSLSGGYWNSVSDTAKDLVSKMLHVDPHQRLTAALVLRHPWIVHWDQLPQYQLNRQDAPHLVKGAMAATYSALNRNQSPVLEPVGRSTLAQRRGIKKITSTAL

PIK3CD = PIK3CD (Homo sapiens, UniProt O00329)
Sequence of PIK3CD (O00329 whole entry): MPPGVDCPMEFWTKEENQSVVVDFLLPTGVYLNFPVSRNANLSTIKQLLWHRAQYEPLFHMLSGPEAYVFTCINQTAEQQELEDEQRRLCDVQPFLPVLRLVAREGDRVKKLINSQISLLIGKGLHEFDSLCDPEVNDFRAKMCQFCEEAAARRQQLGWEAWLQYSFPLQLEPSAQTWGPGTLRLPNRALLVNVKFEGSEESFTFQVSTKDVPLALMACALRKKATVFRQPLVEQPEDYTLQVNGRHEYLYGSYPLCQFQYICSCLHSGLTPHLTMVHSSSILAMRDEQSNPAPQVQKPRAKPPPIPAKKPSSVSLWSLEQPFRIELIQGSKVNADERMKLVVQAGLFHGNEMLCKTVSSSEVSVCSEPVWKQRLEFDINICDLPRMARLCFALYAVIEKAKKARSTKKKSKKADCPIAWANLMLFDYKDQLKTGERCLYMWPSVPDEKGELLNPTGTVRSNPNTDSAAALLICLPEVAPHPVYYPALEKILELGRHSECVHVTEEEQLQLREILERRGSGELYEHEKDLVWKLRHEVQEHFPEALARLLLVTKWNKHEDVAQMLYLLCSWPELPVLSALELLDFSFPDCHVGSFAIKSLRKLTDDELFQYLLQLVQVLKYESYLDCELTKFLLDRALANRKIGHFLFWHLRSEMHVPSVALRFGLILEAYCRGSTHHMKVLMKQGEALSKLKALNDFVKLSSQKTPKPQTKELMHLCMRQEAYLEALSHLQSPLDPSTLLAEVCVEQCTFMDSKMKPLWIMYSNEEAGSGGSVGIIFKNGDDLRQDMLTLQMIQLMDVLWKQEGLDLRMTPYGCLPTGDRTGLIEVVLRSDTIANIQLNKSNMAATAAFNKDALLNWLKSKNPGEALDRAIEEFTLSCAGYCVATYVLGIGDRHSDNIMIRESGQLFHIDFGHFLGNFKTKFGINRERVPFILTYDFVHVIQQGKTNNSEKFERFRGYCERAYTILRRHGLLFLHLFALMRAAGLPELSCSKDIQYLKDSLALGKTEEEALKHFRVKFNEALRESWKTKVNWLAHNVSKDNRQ

ABL2 = ABL2 (Homo sapiens, UniProt P42684)
NUAK2 = NUAK2 (Homo sapiens, UniProt Q9H093)
Sequence of NUAK2 (Q9H093 whole entry): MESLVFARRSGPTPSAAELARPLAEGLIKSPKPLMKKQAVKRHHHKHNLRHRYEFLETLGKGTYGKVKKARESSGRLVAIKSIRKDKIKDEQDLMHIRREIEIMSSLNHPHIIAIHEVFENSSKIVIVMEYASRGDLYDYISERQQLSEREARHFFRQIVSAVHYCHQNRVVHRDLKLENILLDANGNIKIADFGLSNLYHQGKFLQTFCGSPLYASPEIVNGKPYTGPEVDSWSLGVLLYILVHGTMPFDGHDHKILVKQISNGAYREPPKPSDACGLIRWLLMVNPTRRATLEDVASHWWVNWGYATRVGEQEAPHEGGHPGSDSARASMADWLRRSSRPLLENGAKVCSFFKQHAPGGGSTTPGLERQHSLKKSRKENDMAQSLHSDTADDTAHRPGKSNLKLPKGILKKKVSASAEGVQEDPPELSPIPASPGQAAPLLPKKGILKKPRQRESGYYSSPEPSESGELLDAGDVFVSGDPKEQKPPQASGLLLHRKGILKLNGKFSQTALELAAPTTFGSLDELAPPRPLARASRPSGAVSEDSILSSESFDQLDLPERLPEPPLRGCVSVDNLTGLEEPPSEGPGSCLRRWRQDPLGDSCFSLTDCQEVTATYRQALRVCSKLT

[3] = target: T3, RSK1(Kin.Dom.1-N-terminal) (Homo sapiens, UniProt Q15418)
T3 construct: gene RPS6KA1; Kin.Dom.1 N-terminal
T3 sequence (Q15418 whole entry): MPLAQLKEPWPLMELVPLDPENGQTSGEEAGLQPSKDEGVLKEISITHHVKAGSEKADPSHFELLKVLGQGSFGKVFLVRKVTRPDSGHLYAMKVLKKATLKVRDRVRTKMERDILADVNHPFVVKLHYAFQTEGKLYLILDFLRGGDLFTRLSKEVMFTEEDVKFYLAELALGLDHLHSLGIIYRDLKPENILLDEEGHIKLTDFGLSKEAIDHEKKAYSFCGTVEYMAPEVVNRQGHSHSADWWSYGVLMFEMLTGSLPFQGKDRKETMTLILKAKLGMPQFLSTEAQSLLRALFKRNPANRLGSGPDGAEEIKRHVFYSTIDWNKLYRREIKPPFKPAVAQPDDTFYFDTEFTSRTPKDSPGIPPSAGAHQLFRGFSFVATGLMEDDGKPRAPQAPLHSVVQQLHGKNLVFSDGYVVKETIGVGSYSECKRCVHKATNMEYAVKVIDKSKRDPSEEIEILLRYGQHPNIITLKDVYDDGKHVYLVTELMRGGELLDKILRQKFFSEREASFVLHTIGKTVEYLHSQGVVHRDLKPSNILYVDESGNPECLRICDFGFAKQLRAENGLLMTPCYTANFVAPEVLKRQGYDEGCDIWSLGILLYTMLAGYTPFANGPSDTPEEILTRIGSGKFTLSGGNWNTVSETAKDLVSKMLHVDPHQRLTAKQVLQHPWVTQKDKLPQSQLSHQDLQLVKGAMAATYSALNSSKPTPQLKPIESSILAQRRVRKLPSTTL

EIF2AK2 = EIF2AK2 (Homo sapiens, UniProt P19525)
AURKC = AURKC (Homo sapiens, UniProt Q9UQB9)
Sequence of AURKC (Q9UQB9 whole entry): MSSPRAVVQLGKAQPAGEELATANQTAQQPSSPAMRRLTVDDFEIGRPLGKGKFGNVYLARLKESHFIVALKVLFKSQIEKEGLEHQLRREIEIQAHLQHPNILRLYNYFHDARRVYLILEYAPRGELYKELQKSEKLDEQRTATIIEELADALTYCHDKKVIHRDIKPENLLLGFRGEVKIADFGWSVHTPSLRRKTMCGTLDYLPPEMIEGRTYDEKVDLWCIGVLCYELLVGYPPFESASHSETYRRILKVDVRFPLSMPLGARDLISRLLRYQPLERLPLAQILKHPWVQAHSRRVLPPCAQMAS

## Oc1ccc(C2=Cc3ccc(O)cc3OC2)cc1 [compound 1, idronoxil]
TNK1
  remaining binding at 10 µM: 76%
MAP4K2
  remaining binding at 10 µM: 26%
PIK3CA
  remaining binding at 10 µM: 89%
FYN
  remaining binding at 10 µM: 89%
PRKG1
  remaining binding at 10 µM: 74%
WNK4
  remaining binding at 10 µM: 95%
STK32A
  remaining binding at 10 µM: 94%
IRAK3
  remaining binding at 10 µM: 77%
TLK1
  remaining binding at 10 µM: 71%
[1]
  remaining binding at 10 µM: 89%
ROCK1
  remaining binding at 10 µM: 85%
MAPK3
  remaining binding at 10 µM: 94%
[2]
  remaining binding at 10 µM: 57%
PIK3CD
  remaining binding at 10 µM: 86%
ABL2
  remaining binding at 10 µM: 79%
NUAK2
  remaining binding at 10 µM: 68%
[3]
  remaining binding at 10 µM: 71%
EIF2AK2
  remaining binding at 10 µM: 85%
AURKC
  remaining binding at 10 µM: 74%
